Results: US20240390330A1, “ALPHA-2-ADRENERGIC RECEPTOR AGONISTS FOR REDUCING REDNESS AND INCREASING WHITENESS IN EYES AND OTHER OPHTHALMIC PURPOSES” (Allergan, Inc., priority 2020, published 2024)
Values belong to the molecule of their own block, whether it stands above or below them.

Columns and labels:
[1] = Experimental: Aliquots of the PBS only curve were quenched at time zero to be used as stability controls and calibration standards. Following centrifugation, samples were analyzed by LC-MS/MS bioanalysis. Back-calculated concentrations using the assay PBS curve were used for binding and stability calculations.
eye redness = assay: Treatment of red eye (patient cases); format: in vivo, human; settings: person
Description: A person complains about eye redness caused by seasonal allergies. A physician identifies the patient as having an OSH score of +2, and instructs them to administer to both of their eyes a composition comprising a compound of Formula I once or twice a day. Within the first day of administering the compound of Formula I, the patient reports decreased eye redness despite having on-going seasonal allergies, and their physician identifies the patient as having an OSH score of +0.5.
A person without any underlying health problems notices their eyes are red, making them appear tired at work. They administer to both of their eyes a composition comprising a compound of Formula I in order to increase the whiteness of their eyes for cosmetic reasons.
A person complains to their doctor that they suffer from red eyes due to minor eye irritations. The doctor prescribes a composition comprising a compound of Formula I and instructs them to administer the composition once or twice a day. The doctor also tells the person that many other marketed compositions for reducing eye redness are associated with side effects such as rebound hyperemia, dependency, and/or tachyphylaxis and that the person should report any such side effects.
Upon recommendation from a friend, they ask their doctor about possibly switching to a composition comprising the compound of Formula I since their friend told them that it works faster than brimonidine.

pupil diameter = assay: In vivo rabbit miosis model; parameters: species or system Dutch Belted rabbits; settings: for miotic efficacy compared with brimonidine: single topical dose, low-light conditions, FIG. 4 to FIG. 7
Experimental: Female Dutch Belted rabbits (Covance, Princeton, New Jersey) weighing between 2-4 kg were used for these studies. […] For topical dosing, eye drops (volume=35 μl) were instilled into the lower conjunctival sac of the test eye.
Pupil diameter was measured in both the treated and untreated eye with an Optistick to the nearest 0.5 mm. […]

ocular hyperemia = assay: Reducing eye redness in rabbits (naive and povidone iodine induced hyperemia model); format: in vivo, New Zealand White rabbits
Experimental: In this study, Applicant evaluated the compound of Formula I on ocular hyperemia (i.e., eye redness).
The modified Hackett-McDonald Scoring scale (Table 1) was used to assess hyperemia, discomfort, conjunctival swelling and discharge. Ocular imaging was conducted via a Haag-Streit B slit lamp. Effects of these compounds were first evaluated in naïve animals following baseline measurements and then assessed in a povidone iodine induced hyperemia model.
Animals: This study was conducted in female New Zealand White rabbits (Covance) weighing approximately 2-4 kg upon arrival.
This effect can be utilized as a transient hyperemia model to evaluate for potential blanching of blood vessels and rapid reduction of hyperemia. The ocular surface was anesthetized with drops of 0.5% proparacaine. The eye was then irrigated with 5% povidone iodine ophthalmic solution and left on the ocular surface for at least 2 minutes to ensure the solution completely covers the eye. The periocular region was also wiped with povidone solution. Following 2 minutes post-irrigation, the eye was rinsed with sterile saline until the rinsed solution runs clear. Hyperemia at baseline and post ocular topical treatment was assessed via the modified Hackett-McDonald Scoring Scale shown in Table 1 above.
Ocular imaging: A Haag-Streit BP 900 slitlamp was used to evaluate the anterior segment of the eye (e.g., corneal integrity and cells in the aqueous humor). Pupils were dilated by applying drops of 1% cyclopentolate and 10% phenylephrine to the ocular surface. Ocular imaging was conducted in awake and/or anesthetized animals (7.5-10 mg/kg Ketamine/1-10 mg/kg Xylazine).

pupil size = settings: brimonidine tartrate ophthalmic solution 0.2%, presbyopic patients, different lighting conditions (McDonald II et al.); cited from earlier work
[2] = after 6 hours, 0.1% w:v, FIG. 7

melanin binding (in words) [1]: no significant melanin binding
Structure (SMILES): Cc1c(N=C2NCCN2)ccc2[nH]cnc12 [Compound 1]
onset of eye redness reduction (eye redness): more effective in reducing eye redness in quite a bit less than a minute and faster than the brimonidine composition
whiteness of the eyes (eye redness; cosmetic use, both eyes): noticeably whiter
eye redness (eye redness; minor eye irritations, once or twice a day, a few weeks): no longer as red as they used to be
rebound hyperemia, dependency, tachyphylaxis (eye redness; once or twice a day, a few weeks): has not observed any of the rebound hyperemia, dependency, or tachyphylaxis
OSH score (eye redness; seasonal allergies, baseline +2, within the first day, scale of Table 2): +0.5
responder analysis of rabbits with >2.5 mm pupil change (pupil diameter; 0.1% w:v, n=6, scotopic condition (<10 lux), FIG. 7): more efficacious than brimonidine
magnitude of pupil size reduction compared with brimonidine (pupil diameter; FIG. 7 and FIGS. 5 and 6): greater magnitude of pupil size reduction and therapeutic activity when compared to brimonidine
pupil constriction over 9 hours (pupil diameter; FIG. 9): significant pupil constriction even at 9 hours after dosing
effect on pupil constriction compared with Compound 3 (pupil diameter; FIG. 10): greater effect on pupil constriction when compared to Compound 3
dose miotic response (pupil diameter; Scotopic condition (<10 lux), FIG. 6): very potent dose miotic response
animals with greater than 2.5 mm reduction in pupil size from baseline (pupil diameter; [2]): more than half
miotic effect compared with other alpha adrenergic receptor agonists including brimonidine (pupil diameter; rabbit, in vivo): best miotic effect
miotic action (peak pupil constriction and duration of action) (pupil diameter; room lighting conditions, FIG. 8): greater miotic action than brimonidine
animals with greater than 2.5 mm reduction in pupil size from baseline (pupil diameter; two hours after dosing, 0.1% w:v, FIG. 7): virtually all animals
hyperemia reduction on digital redness scale compared with LUMIFY (ocular hyperemia; 0.03% composition, FIG. 3): performed better than LUMIFY®
time post treatment of significant reduction in hyperemia (ocular hyperemia; 0.03% composition, FIG. 3): ≤ 1 min
efficacy on ocular hyperemia compared with LUMIFY (ocular hyperemia; 0.03% composition, single eye drop (~35 μl), FIG. 1 and FIG. 2): significantly greater efficacy on ocular hyperemia than LUMIFY®
reduction in the Modified Hackett-McDonald Score compared with LUMIFY (ocular hyperemia; score including hyperemia, discomfort, conjunctival swelling and discharge): greater reduction in the Modified Hackett-McDonal Score

Structure (SMILES): CCc1c(N=C2NCCN2)ccc2[nH]cnc12 [Compound 2, reference compound]
miotic efficacy compared with brimonidine (pupil diameter): much less than brimonidine

Structure (SMILES): Brc1c(N=C2NCCN2)ccc2[nH]cnc12 [Compound 3, reference compound]
miotic efficacy compared with brimonidine (pupil diameter): much less than brimonidine

melanin binding (in words) [1]: much more significant binding
Structure (SMILES): Brc1c(NC2=NCCN2)ccc2nccnc12 [Compound 4, brimonidine, reference compound]
onset of eye redness reduction (eye redness): takes effect in less than a minute
animals with greater than 2.5 mm reduction in pupil size from baseline (pupil diameter; a half hour after dosing, 0.1% w:v, FIG. 7): much less than half
animals with greater than 2.5 mm reduction in pupil size from baseline (pupil diameter; [2]): virtually none
average pupil size (pupil size): 3.4 mm
